Measurements reported in ChEMBL document CHEMBL4130416, “Glycine-replaced derivatives of [Pro3,DLeu9]TL, a temporin L analogue: Evaluation of antimicrobial, cytotoxic and hemolytic activities” (Eur J Med Chem, 2017).
In brackets after ≈: the same amount, converted by molar mass. Activity calls are given as the source filed them. The calls are words filed in the database; no cut-off is given here. Where a SMILES comes first, the peptide text is derived from it. [ ]: non-standard residue; d: D form.

Key:
Candida albicans [1] = assay: Antimicrobial activity against Candida albicans ATCC 10231 after 18 to 20 hrs by microbroth dilution method; assay type: functional
Pseudomonas aeruginosa [2] = assay: Antimicrobial activity against Pseudomonas aeruginosa ATCC 27853 after 18 to 20 hrs by microbroth dilution method; assay type: functional
[3] = tested on: Staphylococcus epidermidis; assay: Antimicrobial activity against Staphylococcus epidermidis ATCC 12228 assessed as membrane-perturbation measured every minute for 120 mins by SYTOX green fluorescence dye influx assay; assay type: functional, organism-based
[4] = Hemolytic activity against human erythrocytes at 6.25 uM after 40 mins relative to control; assay type: ADME, cell-based, Erythrocyte; conditions: read-out: Activity
Candida albicans [5] = assay: Antimicrobial activity against Candida albicans clinical isolate 1 after 18 to 20 hrs by microbroth dilution method; assay type: functional
HaCaT [6] = assay: Cytotoxicity against human HaCaT cells at 1.56 to 6.25 uM after 24 hrs by MTT assay; assay type: cell-based
Staphylococcus aureus [7] = assay: Antimicrobial activity against beta-lactamase resistant Staphylococcus aureus after 18 to 20 hrs by microbroth dilution method; assay type: functional
Pichia kudriavzevii = assay: Antimicrobial activity against Candida krusei ATCC 6258 after 18 to 20 hrs by microbroth dilution method; assay type: functional
Staphylococcus aureus [8] = assay: Antimicrobial activity against Staphylococcus aureus Cowan I after 18 to 20 hrs by microbroth dilution method; assay type: functional
Staphylococcus aureus [9] = assay: Antimicrobial activity against methicillin resistant Staphylococcus aureus clinical isolate 1 after 18 to 20 hrs by microbroth dilution method; assay type: functional
Pseudomonas aeruginosa [10] = assay: Antimicrobial activity against multisensitive Pseudomonas aeruginosa after 18 to 20 hrs by microbroth dilution method; assay type: functional
HaCaT [11] = assay: Cytotoxicity against human HaCaT cells at 12.5 uM after 24 hrs by MTT assay relative to control; assay type: cell-based
Escherichia coli [12] = assay: Antimicrobial activity against multisensitive Escherichia coli clinical isolate 1 after 18 to 20 hrs by microbroth dilution method; assay type: functional
Acinetobacter baumannii [13] = assay: Antimicrobial activity against Acinetobacter baumannii ATCC 19606 after 18 to 20 hrs by microbroth dilution method; assay type: functional; conditions: ATCC 19606 = CIP 70.34 = JCM 6841
Acinetobacter baumannii [14] = assay: Antimicrobial activity against Acinetobacter baumannii ATCC 19606 assessed as induction of membrane-perturbation at MIC measured every minute for 120 mins by SYTOX green fluorescence dye influx assay; assay type: functional, organism-based; conditions: ATCC 19606 = CIP 70.34 = JCM 6841
[15] = Hemolytic activity against human erythrocytes at 50 uM after 40 mins relative to control; assay type: ADME, cell-based, Erythrocyte; conditions: read-out: Activity
[16] = Hemolytic activity against human erythrocytes at 25 uM after 40 mins relative to control; assay type: ADME, cell-based, Erythrocyte; conditions: read-out: Activity
Candida albicans [17] = assay: Antimicrobial activity against Candida albicans clinical isolate 2 after 18 to 20 hrs by microbroth dilution method; assay type: functional
Staphylococcus aureus [18] = assay: Antimicrobial activity against methicillin resistant Staphylococcus aureus clinical isolate 2 after 18 to 20 hrs by microbroth dilution method; assay type: functional
Escherichia coli [19] = assay: Antimicrobial activity against Escherichia coli D21 after 18 to 20 hrs by microbroth dilution method; assay type: functional
Staphylococcus aureus [20] = assay: Antimicrobial activity against multisensitive Staphylococcus aureus after 18 to 20 hrs by microbroth dilution method; assay type: functional
[21] = Metabolic stability in 90% human serum assessed as parent compound remaining at […] after 120 mins by RP-UHPLC analysis; assay type: ADME, cell-free; conditions: read-out: Stability
Priestia megaterium = assay: Antimicrobial activity against Bacillus megaterium Bm11 after 18 to 20 hrs by microbroth dilution method; assay type: functional
Pseudomonas syringae = assay: Antimicrobial activity against Pseudomonas syringae pv tabaci NCPPB 1918 after 18 to 20 hrs by microbroth dilution method; assay type: functional, Pseudomonas amygdali pv. tabaci
Staphylococcus aureus [22] = assay: Antimicrobial activity against macrolid resistant Staphylococcus aureus after 18 to 20 hrs by microbroth dilution method; assay type: functional
[23] = tested on: Staphylococcus epidermidis; assay: Antimicrobial activity against Staphylococcus epidermidis ATCC 12228 after 18 to 20 hrs by microbroth dilution method; assay type: functional
HaCaT [24] = assay: Cytotoxicity against human HaCaT cells at 25 uM after 24 hrs by MTT assay relative to control; assay type: cell-based
HaCaT [25] = assay: Cytotoxicity against human HaCaT cells at 50 uM after 24 hrs by MTT assay relative to control; assay type: cell-based
[26] = Hemolytic activity against human erythrocytes at 12.5 uM after 40 mins relative to control; assay type: ADME, cell-based, Erythrocyte; conditions: read-out: Activity
Escherichia coli [27] = assay: Antimicrobial activity against multisensitive Escherichia coli clinical isolate 2 after 18 to 20 hrs by microbroth dilution method; assay type: functional
[28] = Hemolytic activity against human erythrocytes at 3.125 uM after 40 mins relative to control; assay type: ADME, cell-based, Erythrocyte; conditions: read-out: Activity
Klebsiella pneumoniae = assay: Antimicrobial activity against multisensitive Klebsiella pneumoniae after 18 to 20 hrs by microbroth dilution method; assay type: functional
Candida albicans [29] = assay: Antimicrobial activity against Candida albicans ATCC 10231 assessed as induction of membrane-perturbation at MIC measured every minute for 10 mins by SYTOX green fluorescence dye influx assay; assay type: functional, organism-based
[30] = Metabolic stability in 90% human serum assessed as parent compound remaining at 0.2 mM after 45 mins by RP-UHPLC analysis; assay type: ADME, cell-free; conditions: read-out: Stability

SMILES	MIC (Candida albicans [1])	MIC (Pseudomonas aeruginosa [2])	hemolysis at 40 min, 6.25 µM [4]	MIC (Candida albicans [5])	Activity (HaCaT [6])	MIC (Staphylococcus aureus [7])	MIC (Pichia kudriavzevii)	MIC (Staphylococcus aureus [8])	MIC (Staphylococcus aureus [9])	MIC (Pseudomonas aeruginosa [10])	Activity (HaCaT [11])	MIC (Escherichia coli [12])	MIC (Acinetobacter baumannii [13])	hemolysis at 40 min, 50 µM [15]	hemolysis at 40 min, 25 µM [16]	MIC (Candida albicans [17])	MIC (Staphylococcus aureus [18])	MIC (Escherichia coli [19])	MIC (Staphylococcus aureus [20])	remaining at 2 h [21]	further results
CC[C@H](C)C(NC(=O)[C@H](CCCNC(=N)N)NC(=O)[C@@H](CCCCN)NC(=O)[C@@H](CC(C)C)NC(=O)[C@H](Cc1ccccc1)NC(=O)[C@H](CCCCN)NC(=O)[C@H](CO)NC(=O)[C@H](Cc1ccccc1)NC(=O)[C@H](Cc1c[nH]c2ccccc12)NC(=O)[C@@H]1CCCN1C(=O)[C@@H](NC(=O)[C@@H](N)Cc1ccccc1)C(C)C)C(=O)N[C@@H](CC(C)C)C(N)=O (single isomer, unassigned)	1.56 µM (≈ 2.62 µg/mL)	12.5 µM (≈ 21 µg/mL)	1%	12.5 µM (≈ 21 µg/mL)	Non-Toxic	25 µM (≈ 42 µg/mL)	1.56 µM (≈ 2.62 µg/mL)	12.5 µM (≈ 21 µg/mL)	25 µM (≈ 42 µg/mL)	> 50 µM	0%	25 µM (≈ 42 µg/mL)	6.25 µM (≈ 10.5 µg/mL)	7%	5%	12.5 µM (≈ 21 µg/mL)	12.5 µM (≈ 21 µg/mL)	12.5 µM (≈ 21 µg/mL)	12.5 µM (≈ 21 µg/mL)	40%	Activity [3]: Active; Activity (Acinetobacter baumannii [14]): Active; MIC (Priestia megaterium): 3.12 µM (≈ 5.25 µg/mL); MIC (Pseudomonas syringae): 12.5 µM (≈ 21 µg/mL); MIC (Staphylococcus aureus [22]): 25 µM (≈ 42 µg/mL); MIC [23]: 3.12 µM (≈ 5.25 µg/mL); Activity (HaCaT [24]): 28.22%; Activity (HaCaT [25]): 87.9%; hemolysis at 40 min, 12.5 µM [26]: 5%; MIC (Escherichia coli [27]): 25 µM (≈ 42 µg/mL); hemolysis at 40 min, 3.125 µM [28]: 0%; MIC (Klebsiella pneumoniae): 50 µM (≈ 84 µg/mL); Activity (Candida albicans [29]): Active
CC[C@H](C)[C@H](NC(=O)[C@H](CCCNC(=N)N)NC(=O)CNC(=O)[C@@H](CC(C)C)NC(=O)[C@H](Cc1ccccc1)NC(=O)[C@H](CCCCN)NC(=O)[C@H](CO)NC(=O)[C@H](Cc1ccccc1)NC(=O)[C@H](Cc1c[nH]c2ccccc12)NC(=O)[C@@H]1CCCN1C(=O)[C@@H](NC(=O)[C@@H](N)Cc1ccccc1)C(C)C)C(=O)N[C@@H](CC(C)C)C(N)=O (H-FVPWFSKF[dL]GRIL-NH2)	3.12 µM (≈ 5.03 µg/mL)	50 µM (≈ 80.4 µg/mL)	3%	25 µM (≈ 40.2 µg/mL)	Non-Toxic	12.5 µM (≈ 20.1 µg/mL)	3.12 µM (≈ 5.03 µg/mL)	12.5 µM (≈ 20.1 µg/mL)	12.5 µM (≈ 20.1 µg/mL)	> 50 µM	20.63%	50 µM (≈ 80.4 µg/mL)	12.5 µM (≈ 20.1 µg/mL)	21%	7%	25 µM (≈ 40.2 µg/mL)	12.5 µM (≈ 20.1 µg/mL)	12.5 µM (≈ 20.1 µg/mL)	12.5 µM (≈ 20.1 µg/mL)	20%	remaining at 0.75 h, 200 µM [30]: 45%; MIC (Priestia megaterium): 3.12 µM (≈ 5.03 µg/mL); MIC (Pseudomonas syringae): 12.5 µM (≈ 20.1 µg/mL); MIC (Staphylococcus aureus [22]): 12.5 µM (≈ 20.1 µg/mL); MIC [23]: 6.25 µM (≈ 10.1 µg/mL); Activity (HaCaT [24]): 57.52%; Activity (HaCaT [25]): 91.58%; hemolysis at 40 min, 12.5 µM [26]: 6%; MIC (Escherichia coli [27]): 50 µM (≈ 80.4 µg/mL); hemolysis at 40 min, 3.125 µM [28]: 1%; MIC (Klebsiella pneumoniae): > 50 µM
CC[C@H](C)[C@H](NC(=O)[C@H](CCCNC(=N)N)NC(=O)[C@H](Cc1c[nH]c2ccccc12)NC(=O)[C@@H](CC(C)C)NC(=O)[C@H](Cc1ccccc1)NC(=O)[C@H](CCCCN)NC(=O)[C@H](CO)NC(=O)[C@H](Cc1ccccc1)NC(=O)[C@H](Cc1c[nH]c2ccccc12)NC(=O)[C@@H]1CCCN1C(=O)[C@@H](NC(=O)[C@@H](N)Cc1ccccc1)C(C)C)C(=O)N[C@@H](CC(C)C)C(N)=O (H-FVPWFSKF[dL]WRIL-NH2)	3.12 µM (≈ 5.43 µg/mL)	> 50 µM	4%	25 µM (≈ 43.5 µg/mL)	Non-Toxic	6.25 µM (≈ 10.9 µg/mL)	3.12 µM (≈ 5.43 µg/mL)	3.12 µM (≈ 5.43 µg/mL)	6.25 µM (≈ 10.9 µg/mL)	> 50 µM	0%	50 µM (≈ 86.9 µg/mL)	3.12 µM (≈ 5.43 µg/mL)	37%	20%	25 µM (≈ 43.5 µg/mL)	6.25 µM (≈ 10.9 µg/mL)	25 µM (≈ 43.5 µg/mL)	6.25 µM (≈ 10.9 µg/mL)	50%	Activity [3]: Active; Activity (Acinetobacter baumannii [14]): Active; remaining at 0.75 h, 200 µM [30]: 80%; MIC (Priestia megaterium): 1.56 µM (≈ 2.71 µg/mL); MIC (Pseudomonas syringae): 1.56 µM (≈ 2.71 µg/mL); MIC (Staphylococcus aureus [22]): 6.25 µM (≈ 10.9 µg/mL); MIC [23]: 1.56 µM (≈ 2.71 µg/mL); Activity (HaCaT [24]): 32.1%; Activity (HaCaT [25]): 89.3%; hemolysis at 40 min, 12.5 µM [26]: 7%; MIC (Escherichia coli [27]): 50 µM (≈ 86.9 µg/mL); hemolysis at 40 min, 3.125 µM [28]: 2%; MIC (Klebsiella pneumoniae): > 50 µM; Activity (Candida albicans [29]): Active
